Laboratory results from PMC7081907, “Discovery and Selection of Hepatitis B Virus-Derived T Cell Epitopes for Global Immunotherapy Based on Viral Indispensability, Conservation, and HLA-Binding Strength” (Journal of Virology, 2020).
Marks after values point to notes of the source that are not given here.

Key:
HBV-specific T cells = details: cumulative over papers, responder = positive multimer staining and/or IFN-γ ELISPOT, ref Hepitopes database [24], [49], cited from earlier work; for % responders (no. of responders/total no. of subjects tested), Chronic: chronic HBV patients; for % responders (no. of responders/total no. of subjects tested), Acute: patients with acute/resolved HBV infection, asterisk = significantly more prevalent than in other groups; for % responders (no. of responders/total no. of subjects tested), HCC: HBV-positive HCC patients;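 on all read-outs here: responder rates refer to previously reported epitopes of HBx or polymerase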
cytotoxic T cells = details: HLA-A*24:02 peptide, ref Yamamiya et al. [89]; cited from earlier work
Text: We identified a few novel epitopes for which the sequence overlaps that of an epitope that has previously been described for the HLA type tested. […] It would now be interesting to investigate how responses to these epitope variants relate in CHB patients, especially since p755-764 has been the only HBV-derived epitope described for supertype HLA-A*24 until very recently. For HLA-A*24:02, we studied the binding cap ...

[1] = tested on: PBMCs from blood donors who had previously resolved an HBV infection; test: Immunogenicity: IFN-γ ELISA on peptide-expanded PBMCs of HBV resolvers; format: cell-based, human; details: for number of responsive donors as a fraction of the total number of subjects tested: PBMCs expanded 14 days, restimulated 48 h, 10 μg/ml/peptide, response = mean OD ≥ mean + 2 SD of DMSO; for IFN-γ production in response to peptide, in words: expanded PBMCs from 9 HBV resolvers, HLA-matched, single-peptide restimulation 48 h, 10 μg/ml, DMSO-subtracted
Protocol: Finally, the immunogenicity of all HBx- and Pol-derived binders was assessed to determine which binders would be most interesting for the development of an antigen-based HBV-targeting immunotherapy.
Briefly, PBMCs were isolated by Ficoll (GE Healthcare) density centrifugation from buffy coats of 9 donors who had previously resolved HBV infection. Buffy coats were provided by the local blood bank with corresponding 2-digit HLA types. Four-digit HLA typing was performed for 7 out of 9 donors using the global screening array (GSA) (Illumina through the Human Genomics Facility, Erasmus MC Rotterdam) (Table 3). All donors gave written informed consent. PBMCs were cultured in Iscove’s modified Dulbecco’s medium (IMDM) (Lonza) containing 2% human serum (Sanquin) and 50 IU/ml human interleukin-2 (hIL-2) (Miltenyi) in the presence of peptide pools of a maximum of 5 peptides of interest based on HLA matching at 10 μg/ml/peptide. After 14 days, 200,000 cells were restimulated with the peptides of interest for 48 h at 37°C with 10 μg/ml/peptide in triplicate. Supernatants from restimulations were subsequently used in a human IFN-γ (hIFN-γ) ELISA (BioLegend) according to the manufacturer’s instructions. Plates were read at a 450-nm wavelength using an Infinite 200Pro ELISA reader. hIFN-γ levels were calculated from background-subtracted optical density (OD) values (means from triplicates) using a supernatant derived from a previously successful restimulation with c18-27 that was quantified in a separate ELISA using the hIFN-γ standard provided by the manufacturer. HLA binders with a mean OD value of at least the mean plus 2 times the standard deviation (SD) of the dimethyl sulfoxide (DMSO) control were quantified.

HLA-A*24:02 = HLA-A*24:02 (Homo sapiens, UniProt P04439, D101N/D140Y/D185E/E176V/E190D/F33S/G103R/G107R/I119L/I121M/I306V/K335N/L105A/L180Q/L300P/N151K/N90K/Q86E/Q94H/R106L/R138H/R89G/T104I/T345S/V100E/W191G/Y123F); test: UV-based in vitro HLA binding assay (peptide exchange + HLA-I ELISA), HLA-A*24:02; details: conditional pHLA 0.53 μM, peptide 50 μM, 30 min 366-nm UV, absorbance 414 nm normalized to high-affinity positive control (100%), two exchanges, each in duplicate
Protocol: (§1) Next, the HLA-binding capacity of selected peptides was tested in a UV-based in vitro binding assay. […] HLA-A*11:01 and HLA-A*03:01 were both tested as members of the HLA-A*03 supertype since many HBV-infected patients are Asian and HLA-A*11:01 is more prevalent in this population than the supertype representative HLA-A*03:01, which is more prevalent in Caucasians ([72]). We identified 13 binders for HBx and 33 for Pol across HLA supertypes, including novel binders that have been described previously in the context of another HLA type (Fig. 5A to G, dotted underlining, and Fig. 5H). […] In contrast, binding of infrequently reported epitopes (Fig. 5, solid underlining) could not always be verified.
(§2) Synthetic peptides (Peptide 2.0 Inc.) of selected potential HLA binders were used in an in vitro binding assay as described previously ([96]). […] Subsequently, the peptide exchange efficiency was analyzed using an HLA-I enzyme-linked immunosorbent assay (ELISA), which detects beta-2-microglobulin of peptide-stabilized HLA-I complexes in an exchange reaction mixture. […] The reaction was stopped after 8 min (incubation at room temperature) by the addition of a 2% (wt/vol) oxalic acid dihydrate stop solution (Sanquin Reagents BV) and read in a Thermo Electron Multiskan Ascent ELISA reader at 414 nm. […] Every exchange mixture was measured in duplicate by the HLA-I ELISA. […]

HLA-B*07:02 = HLA-B*07:02 (Homo sapiens, UniProt P01889); test: UV-based in vitro HLA binding assay (peptide exchange + HLA-I ELISA), HLA-B*07:02; details: conditional pHLA 0.53 μM, peptide 50 μM, 30 min 366-nm UV, absorbance 414 nm normalized to high-affinity positive control (100%), two exchanges, each in duplicate
Protocol: as §1, §2

HLA-B*08:01 = HLA-B*08:01 (Homo sapiens, UniProt P01889, A93T/A95T/D138N/E176V/E187T/K202T/Q94N/R180D/S35A/V36M/Y33D/Y91F); test: UV-based in vitro HLA binding assay (peptide exchange + HLA-I ELISA), HLA-B*08:01; details: conditional pHLA 0.53 μM, peptide 50 μM, 30 min 366-nm UV, absorbance 414 nm normalized to high-affinity positive control (100%), two exchanges, each in duplicate
Text: Nonbound material was removed by washing. […] Every peptide was independently exchanged twice.

Row | Sequence | % responders (no. of responders/total no. of subjects tested), Chronic (HBV-specific T cells) | % responders (no. of responders/total no. of subjects tested), Acute (HBV-specific T cells) | % responders (no. of responders/total no. of subjects tested), HCC (HBV-specific T cells) | further results
1 | ILRGTSFVYV | 0 (0/9) % | 43 (3/7) % |  | 
2 | GYPALMPLY [p650-658] |  |  |  | responding HBV resolvers (cytotoxic T cells): none of the 3; number of responsive donors as a fraction of the total number of subjects tested ([1]; HLA-A*24:02 donors): 1 of the 2
3 | QLDPARDVL | 0 (0/20) % | 25 (1/4) % | 0 (0/10) % | 
4 | SAICSVVRR |  | 9 (2/22) % |  | 
5 | FLLSLGIHL [p573-581] | 13 (9/70) % | 59 (50/85)* % | 0 (0/10) % | 
6 | ASFCGSPYSW [p166-175] |  |  |  | HLA binding class (binder/nonbinder), HLA-A*24:02 (HLA-A*24:02): binder (binders (>25% of the positive control))
7 | KLVCSPAPC |  |  | 50 (3/6) % | 
8 | CLFKDWEEL |  |  | 50 (3/6) % | 
9 | QAFTFSPTYK [p665-674] |  | 14 (3/21) % |  | 
10 | SLYADSPSV [p814-822] | 0 (0/22) % | 25 (11/44)* % |  | 
11 | NVSIPWTHK [p47-55] |  | 5 (1/21) % |  | 
12 | TLWKAGILYK [p150-159] |  | 18 (5/28) % |  | 
13 | VLGGCRHKL [x133-141] | 0 (0/20) % |  | 0 (0/10) % | 
14 | GLSRYVARL [p453-461] | 6 (5/87) % | 50 (39/78)* % | 0 (0/10) % | 
15 | YPALMPLYA [p651-659] |  | 0 (0/12) % |  | 
16 | ALMPLYACI [p653-661] | 0 (0/9) % | 20 (4/20) % | 0 (0/10) % | 
17 | YLHTLWKAGI [p147-156] |  |  | 0 (0/10) % | 
18 | KYTSFPWLL [p756-764] | 48 (10/21) % | 93 (13/14)* % |  | 
19 | NLSWLSLDV [p422-430] |  |  | 0 (0/10) % | 
20 | TPARVTGGVF [p365-374] |  | 17 (2/12) % |  | number of responsive donors as a fraction of the total number of subjects tested ([1]; HLA-B*07:02 donors): 4/4; HLA binding class (binder/nonbinder), HLA-B*07:02 (HLA-B*07:02): binder (binders (>25% of the positive control))
21 | YMDDVVLGA [p549-557] | 0 (0/21) % | 15 (2/13) % | 0 (0/10) % | IFN-γ production in response to peptide, in words [1]: IFN-γ production was detected
22 | KVGNFTGLY [p55-63] |  | 9 (2/22) % |  | 
23 | LVVDFSQFSR [p388-397] |  | 5 (1/22) % |  | 
24 | HTLWKAGILYK [p149-159] |  | 5 (1/22) % |  | 
25 | VLHKRTLGL [x92-100] | 0 (0/20) % |  | 19 (3/16) % | HLA binding class (binder/nonbinder), HLA-B*08:01 (HLA-B*08:01): binder (binders (>25% of the positive control))
26 | HLSLRGLPV [x52-60] | 0 (0/20) % |  | 19 (3/16) % | HLA binding class (binder/nonbinder), HLA-B*08:01 (HLA-B*08:01): binder (binders (>25% of the positive control))
27 | RKYTSFPWLL [p755-764] |  |  |  | IFN-γ production in response to peptide, in words [1]: superior IFN-γ production compared to the known epitope p756-764 in both donors tested
28 | HPAAMPHLL [p440-448] |  | 0 (0/12) % |  | 
